Source: patent publication US9012443B2 (Amgen Inc., priority 2011, dated 2015)
pIC50: −log10 of the molar value.

Columns and labels:
Nav 1.7 = Nav 1.7 (Homo sapiens (Human), UniProt Q15858); assay: Nav 1.7 in vitro PX assay (PatchXpress whole cell voltage clamp); format: cell-based; settings: 293 cells, human Nav1.7, partially inactivated state; read-out: Nav1.7 PX IC50 IP
Procedure, shortened: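 HEK293 cells stably expressing human Nav1.7, whole-cell voltage clamp on PatchXpress, held at potential giving 20–50% inactivation; current elicited by 20 msec pulse to −10 mV.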

Nav 1.5 = Nav 1.5 (Homo sapiens (Human), UniProt Q14524); assay: Nav 1.5 in vitro PX assay (PatchXpress whole cell voltage clamp); format: cell-based; settings: 293 cells stably transfected with Nav 1.5; second part of table; read-out: Nav1.5 PX IC50
Nav 1.5, sequence (Q14524 whole entry): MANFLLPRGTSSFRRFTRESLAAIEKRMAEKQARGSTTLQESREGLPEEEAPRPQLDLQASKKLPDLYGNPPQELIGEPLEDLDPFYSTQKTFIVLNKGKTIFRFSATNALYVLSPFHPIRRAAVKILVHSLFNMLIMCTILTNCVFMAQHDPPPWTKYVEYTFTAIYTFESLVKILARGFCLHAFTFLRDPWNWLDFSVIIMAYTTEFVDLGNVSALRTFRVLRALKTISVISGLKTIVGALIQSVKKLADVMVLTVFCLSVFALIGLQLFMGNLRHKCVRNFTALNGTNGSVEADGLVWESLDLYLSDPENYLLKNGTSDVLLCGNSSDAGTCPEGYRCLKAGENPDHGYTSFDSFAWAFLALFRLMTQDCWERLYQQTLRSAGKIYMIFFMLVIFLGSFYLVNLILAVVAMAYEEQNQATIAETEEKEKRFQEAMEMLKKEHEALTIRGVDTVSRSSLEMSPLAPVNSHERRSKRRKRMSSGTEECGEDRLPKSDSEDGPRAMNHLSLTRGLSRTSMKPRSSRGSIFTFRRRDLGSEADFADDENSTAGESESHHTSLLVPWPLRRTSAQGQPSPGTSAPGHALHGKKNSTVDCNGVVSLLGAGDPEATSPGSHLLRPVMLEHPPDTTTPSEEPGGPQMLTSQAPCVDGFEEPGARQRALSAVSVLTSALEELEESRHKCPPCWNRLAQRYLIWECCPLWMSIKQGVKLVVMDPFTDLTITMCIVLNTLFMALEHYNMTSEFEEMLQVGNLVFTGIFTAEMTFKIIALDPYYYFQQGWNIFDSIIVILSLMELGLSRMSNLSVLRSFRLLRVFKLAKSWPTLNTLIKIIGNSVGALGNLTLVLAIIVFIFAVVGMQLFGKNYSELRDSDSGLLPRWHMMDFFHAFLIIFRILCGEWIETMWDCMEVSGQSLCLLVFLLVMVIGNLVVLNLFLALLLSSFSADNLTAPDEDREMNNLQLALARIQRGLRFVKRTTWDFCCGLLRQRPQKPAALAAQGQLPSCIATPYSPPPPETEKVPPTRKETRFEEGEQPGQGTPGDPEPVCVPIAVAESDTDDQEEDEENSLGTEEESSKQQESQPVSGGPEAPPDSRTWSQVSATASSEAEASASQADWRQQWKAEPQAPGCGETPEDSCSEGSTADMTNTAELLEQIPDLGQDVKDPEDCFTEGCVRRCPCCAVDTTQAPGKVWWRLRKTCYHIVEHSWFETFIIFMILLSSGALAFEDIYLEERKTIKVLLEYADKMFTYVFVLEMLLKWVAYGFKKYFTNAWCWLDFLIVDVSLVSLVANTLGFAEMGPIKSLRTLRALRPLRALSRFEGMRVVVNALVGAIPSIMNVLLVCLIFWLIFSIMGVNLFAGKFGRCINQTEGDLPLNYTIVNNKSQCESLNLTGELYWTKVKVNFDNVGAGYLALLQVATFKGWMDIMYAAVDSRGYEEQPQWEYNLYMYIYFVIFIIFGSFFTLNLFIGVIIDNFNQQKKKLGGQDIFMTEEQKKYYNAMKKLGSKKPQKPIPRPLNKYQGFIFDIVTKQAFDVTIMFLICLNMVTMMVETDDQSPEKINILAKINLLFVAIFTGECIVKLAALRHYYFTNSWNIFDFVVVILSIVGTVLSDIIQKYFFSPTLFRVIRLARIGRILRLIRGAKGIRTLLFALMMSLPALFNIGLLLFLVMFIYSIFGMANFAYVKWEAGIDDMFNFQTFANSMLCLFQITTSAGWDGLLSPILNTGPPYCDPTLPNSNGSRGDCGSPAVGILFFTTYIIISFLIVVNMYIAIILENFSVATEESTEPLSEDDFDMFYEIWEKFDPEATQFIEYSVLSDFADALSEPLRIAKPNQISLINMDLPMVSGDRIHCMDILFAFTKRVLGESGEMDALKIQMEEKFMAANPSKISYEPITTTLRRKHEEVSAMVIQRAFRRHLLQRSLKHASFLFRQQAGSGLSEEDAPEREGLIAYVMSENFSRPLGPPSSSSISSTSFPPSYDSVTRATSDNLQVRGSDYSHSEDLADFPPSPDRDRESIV
Description: Nav 1.5 In Vitro PX Assay
293 cells stably transfected with Nav 1.5 were recorded in whole cell voltage clamp mode with the PatchXpress automated electrophysiology system according the manufacturer's specifications (Molecular Devices, LLC, Sunnyvale, Calif.). Cells were held at a holding potential of −50 mV to inactivate sodium channels. To elicit sodium currents the voltage was changed to −120 mV to recover a portion of the channels, followed by delivery of test pulses of 20 msec duration to 0 mV, at 0.1 Hz. A single concentration of test compound was applied to cells for a duration of 5 minutes. Peak sodium current was measured at the end of the compound addition period to determine percent inhibition. A minimum of two cells were tested per concentration. IC50 curves were fitted to percent inhibition as a function of concentration.

Nav 1.7, sequence (Q15858 whole entry): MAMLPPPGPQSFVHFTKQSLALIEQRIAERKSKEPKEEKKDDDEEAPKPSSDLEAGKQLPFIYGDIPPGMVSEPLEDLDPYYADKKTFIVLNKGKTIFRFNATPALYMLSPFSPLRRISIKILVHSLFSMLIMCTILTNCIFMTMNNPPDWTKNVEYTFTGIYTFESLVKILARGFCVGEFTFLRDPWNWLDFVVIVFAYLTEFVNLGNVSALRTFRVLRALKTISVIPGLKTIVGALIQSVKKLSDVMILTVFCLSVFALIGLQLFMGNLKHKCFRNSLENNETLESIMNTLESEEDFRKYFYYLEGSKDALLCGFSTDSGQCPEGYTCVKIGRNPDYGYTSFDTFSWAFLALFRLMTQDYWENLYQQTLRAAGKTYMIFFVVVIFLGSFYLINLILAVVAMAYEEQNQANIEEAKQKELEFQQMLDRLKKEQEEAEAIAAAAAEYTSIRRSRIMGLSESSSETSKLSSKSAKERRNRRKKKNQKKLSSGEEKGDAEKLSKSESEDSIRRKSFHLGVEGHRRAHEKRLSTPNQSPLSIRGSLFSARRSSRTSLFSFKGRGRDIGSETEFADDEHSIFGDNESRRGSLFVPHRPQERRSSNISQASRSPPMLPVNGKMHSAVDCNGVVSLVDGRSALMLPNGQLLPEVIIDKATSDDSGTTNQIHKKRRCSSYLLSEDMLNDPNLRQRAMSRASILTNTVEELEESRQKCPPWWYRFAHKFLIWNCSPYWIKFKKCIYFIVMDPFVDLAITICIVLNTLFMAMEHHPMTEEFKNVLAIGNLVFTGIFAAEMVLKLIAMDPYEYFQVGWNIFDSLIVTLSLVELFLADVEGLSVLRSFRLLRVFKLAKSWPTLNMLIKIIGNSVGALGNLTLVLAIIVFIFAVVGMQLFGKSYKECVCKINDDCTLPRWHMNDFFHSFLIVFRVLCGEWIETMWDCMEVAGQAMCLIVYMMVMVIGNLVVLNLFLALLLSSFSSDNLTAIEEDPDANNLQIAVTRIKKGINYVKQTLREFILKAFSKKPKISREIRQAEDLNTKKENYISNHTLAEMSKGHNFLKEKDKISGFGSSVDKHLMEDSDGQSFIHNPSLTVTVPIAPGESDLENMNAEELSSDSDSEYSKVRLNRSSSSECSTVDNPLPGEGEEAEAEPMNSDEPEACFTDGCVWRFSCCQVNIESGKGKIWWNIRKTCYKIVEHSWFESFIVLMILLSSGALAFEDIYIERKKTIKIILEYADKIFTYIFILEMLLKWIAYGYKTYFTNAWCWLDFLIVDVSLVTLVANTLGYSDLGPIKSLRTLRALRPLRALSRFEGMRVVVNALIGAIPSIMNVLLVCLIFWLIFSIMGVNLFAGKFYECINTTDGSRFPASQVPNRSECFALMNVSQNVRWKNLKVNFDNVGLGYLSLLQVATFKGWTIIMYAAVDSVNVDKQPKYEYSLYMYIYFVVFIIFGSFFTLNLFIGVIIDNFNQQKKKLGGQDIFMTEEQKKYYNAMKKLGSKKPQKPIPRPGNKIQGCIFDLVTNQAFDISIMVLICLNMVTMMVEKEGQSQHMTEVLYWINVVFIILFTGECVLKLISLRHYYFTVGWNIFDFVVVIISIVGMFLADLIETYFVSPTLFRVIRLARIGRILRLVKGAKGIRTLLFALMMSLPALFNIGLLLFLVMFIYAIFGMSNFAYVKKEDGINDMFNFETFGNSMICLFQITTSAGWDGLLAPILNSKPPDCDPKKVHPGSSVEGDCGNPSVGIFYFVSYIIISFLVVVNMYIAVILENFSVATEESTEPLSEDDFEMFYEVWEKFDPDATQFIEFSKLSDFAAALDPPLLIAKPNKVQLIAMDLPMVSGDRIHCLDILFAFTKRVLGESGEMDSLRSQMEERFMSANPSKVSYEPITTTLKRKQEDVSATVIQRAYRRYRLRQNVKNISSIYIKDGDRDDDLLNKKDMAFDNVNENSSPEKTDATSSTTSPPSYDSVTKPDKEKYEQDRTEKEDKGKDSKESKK

pIC50 (Nav 1.7) | Compound | pIC50 (Nav 1.5)
6.18 | COc1cc(C(F)(F)F)ccc1-c1ccnc2cc(S(=O)(=O)Nc3nccs3)c(C)cc12 [Example 326, 4-(2-METHOXY-4-(TRIFLUOROMETHYL)PHENYL)-6-METHYL-N-(THIAZOL-2-YL)QUINOLINE-7-SULFONAMIDE] | 5.60
6.93 | COc1cc(C#N)ccc1-c1cccc2cc(S(=O)(=O)Nc3ncns3)ccc12 [Example 330] | < 4.52
7.55 | COc1cc(-c2cccc(F)c2)c(Cl)cc1-c1nccc2cc(S(=O)(=O)Nc3nncs3)ccc12 [Example 332, 1-(2-CHLORO-3′-FLUORO-5-METHOXY-[1,1′-BIPHENYL]-4-YL)-N-(1,3,4-THIADIAZOL-2-YL)ISOQUINOLINE-6-SULFONAMIDE] | 4.68
7.12 | COc1cc(-c2cccc(F)c2)c(Cl)cc1-c1nccc2cc(S(=O)(=O)Nc3ccncn3)ccc12 [Example 333, 1-(2-CHLORO-3′-FLUORO-5-METHOXY-[1,1′-BIPHENYL]-4-YL)-N-(PYRIMIDIN-4-YL)ISOQUINOLINE-6-SULFONAMIDE] | 4.69
7.28 | COc1cc(-c2cccc(F)c2)c(Cl)cc1-c1nccc2cc(S(=O)(=O)Nc3ccon3)ccc12 [Example 335, 1-(2-CHLORO-3′-FLUORO-5-METHOXY-[1,1′-BIPHENYL]-4-YL)-N-(ISOXAZOL-3-YL)ISOQUINOLINE-6-SULFONAMIDE] | < 4.52
6.81 | COc1cc(Cl)c(C#N)cc1-c1nccc2cc(S(=O)(=O)Nc3ncns3)ccc12 [Example 336, 1-(4-CHLORO-5-CYANO-2-METHOXYPHENYL)-N-(1,2,4-THIADIAZOL-5-YL)ISOQUINOLINE-6-SULFONAMIDE] | < 4.52
6.41 | COc1cc(Cl)c(C#N)cc1-c1nccc2cc(S(=O)(=O)Nc3nncs3)ccc12 [Example 337, 1-(4-CHLORO-5-CYANO-2-METHOXYPHENYL)-N-(1,3,4-THIADIAZOL-2-YL)ISOQUINOLINE-6-SULFONAMIDE] | < 4.52
7.54 | COc1cc(-c2cc(F)cc(F)c2)c(C#N)cc1-c1nccc2cc(S(=O)(=O)Nc3nncs3)ccc12 [Example 338, 1-(2-CYANO-3′,5′-DIFLUORO-5-METHOXY-[1,1′-BIPHENYL]-4-YL)-N-(1,3,4-THIADIAZOL-2-YL)ISOQUINOLINE-6-SULFONAMIDE] | < 4.52
7.51 | COc1cc(-c2cccc(C(F)(F)F)c2)c(C#N)cc1-c1nccc2cc(S(=O)(=O)Nc3nncs3)ccc12 [Example 339, 1-(2-CYANO-5-METHOXY-3′-(TRIFLUOROMETHYL)-[1,1′-BIPHENYL]-4-YL)-N-(1,3,4-THIADIAZOL-2-YL)ISOQUINOLINE-6-SULFONAMIDE] | < 4.52
7.25 | COc1cc(-c2cccc(F)c2)c(C#N)cc1-c1nccc2cc(S(=O)(=O)Nc3ncns3)ccc12 [Example 340, 1-(2-CYANO-3′-FLUORO-5-METHOXY-[1,1′-BIPHENYL]-4-YL)-N-(1,2,4-THIADIAZOL-5-YL)ISOQUINOLINE-6-SULFONAMIDE] | < 4.52
7.16 | COc1cc(-c2cccc(F)c2)c(C#N)cc1-c1nccc2cc(S(=O)(=O)Nc3nncs3)ccc12 [Example 341, 1-(2-CYANO-3′-FLUORO-5-METHOXY-[1,1′-BIPHENYL]-4-YL)-N-(1,3,4-THIADIAZOL-2-YL)ISOQUINOLINE-6-SULFONAMIDE] | < 4.52
6.91 | COc1cc(-c2cccc(F)c2)c(C#N)cc1-c1nccc2cc(S(=O)(=O)Nc3ccon3)ccc12 [Example 342, 1-(2-CYANO-3′-FLUORO-5-METHOXY-[1,1′-BIPHENYL]-4-YL)-N-(ISOXAZOL-3-YL)ISOQUINOLINE-6-SULFONAMIDE] | < 4.52
6.84 | COc1cc(-c2cc(F)cc(F)c2)c(C#N)cc1-c1nccc2cc(S(=O)(=O)Nc3ccon3)ccc12 [Example 343, 1-(2-CYANO-3′,5′-DIFLUORO-5-METHOXY-[1,1′-BIPHENYL]-4-YL)-N-(ISOXAZOL-3-YL)ISOQUINOLINE-6-SULFONAMIDE] | < 4.52
7.47 | COc1ccc(-c2cccc(C(F)(F)F)c2)cc1-c1nccc2cc(S(=O)(=O)Nc3nncs3)ccc12 [Example 344, 1-(4-METHOXY-3′-(TRIFLUOROMETHYL)-[1,1′-BIPHENYL]-3-YL)-N-(1,3,4-THIADIAZOL-2-YL)ISOQUINOLINE-6-SULFONAMIDE] | < 4.52
7.12 | COc1ccc(-c2cccc(F)c2)cc1-c1nccc2cc(S(=O)(=O)Nc3nncs3)ccc12 [Example 345, 1-(3′-FLUORO-4-METHOXY-[1,1′-BIPHENYL]-3-YL)-N-(1,3,4-THIADIAZOL-2-YL)ISOQUINOLINE-6-SULFONAMIDE] | < 4.52
6.88 | COc1ccc(Cl)cc1-c1nccc2cc(S(=O)(=O)Nc3ncns3)ccc12 [Example 346, 1-(5-CHLORO-2-METHOXYPHENYL)-N-(1,2,4-THIADIAZOL-5-YL)ISOQUINOLINE-6-SULFONAMIDE] | < 4.52
7.40 | COc1ccc(-c2cccc(F)c2)cc1-c1nccc2cc(S(=O)(=O)Nc3ncns3)ccc12 [Example 347, 1-(3′-FLUORO-4-METHOXY-[1,1′-BIPHENYL]-3-YL)-N-(1,2,4-THIADIAZOL-5-YL)ISOQUINOLINE-6-SULFONAMIDE] | < 4.52
6.99 | COc1ccc(-c2cccc(F)c2)cc1-c1nccc2cc(S(=O)(=O)Nc3ccncn3)ccc12 [Example 348, 1-(3′-FLUORO-4-METHOXY-[1,1′-BIPHENYL]-3-YL)-N-(PYRIMIDIN-4-YL)ISOQUINOLINE-6-SULFONAMIDE] | < 4.52
7.42 | COc1ccc(-c2cccc(C(F)(F)F)c2)cc1-c1nccc2cc(S(=O)(=O)Nc3ccncn3)ccc12 [Example 349, 1-(4-METHOXY-3′-(TRIFLUOROMETHYL)-[1,1′-BIPHENYL]-3-YL)-N-(PYRIMIDIN-4-YL)ISOQUINOLINE-6-SULFONAMIDE] | < 4.52
6.79 | COc1cc(-c2ccc(F)cc2)ccc1-c1nccc2cc(S(=O)(=O)Nc3ccncn3)ccc12 [Example 350, 1-(4′-FLUORO-3-METHOXY-[1,1′-BIPHENYL]-4-YL)-N-(PYRIMIDIN-4-YL)ISOQUINOLINE-6-SULFONAMIDE] | < 4.52
7.12 | COc1cc(-c2cccc(C(F)(F)F)c2)ccc1-c1nccc2cc(S(=O)(=O)Nc3ccncn3)ccc12 [Example 351, 1-(3-METHOXY-3′-(TRIFLUOROMETHYL)-[1,1′-BIPHENYL]-4-YL)-N-(PYRIMIDIN-4-YL)ISOQUINOLINE-6-SULFONAMIDE] | 4.58
6.96 | COc1cc(-c2cccc(F)c2)ccc1-c1nccc2cc(S(=O)(=O)Nc3nncs3)ccc12 [Example 354, 1-(3′-FLUORO-3-METHOXY-[1,1′-BIPHENYL]-4-YL)-N-(1,3,4-THIADIAZOL-2-YL)ISOQUINOLINE-6-SULFONAMIDE 2,2,2-TRIFLUOROACETATE] | < 4.52
7.32 | COc1cc(-c2cc(F)cc(F)c2)ccc1-c1nccc2cc(S(=O)(=O)Nc3nncs3)ccc12 [Example 355, 1-(3′,5′-DIFLUORO-3-METHOXY-[1,1′-BIPHENYL]-4-YL)-N-(1,3,4-THIADIAZOL-2-YL)ISOQUINOLINE-6-SULFONAMIDE 2,2,2-TRIFLUOROACETATE] | < 4.52
6.40 | Cc1cc(-c2cccc(F)c2)ccc1-c1nccc2cc(S(=O)(=O)Nc3ccncn3)ccc12 [Example 358, 1-(3′-FLUORO-3-METHYL-[1,1′-BIPHENYL]-4-YL)-N-(PYRIMIDIN-4-YL)ISOQUINOLINE-6-SULFONAMIDE] | < 4.52
6.29 | COc1cc(CC(C)(C)C)ccc1-c1nccc2cc(S(=O)(=O)Nc3ccncn3)ccc12 [Example 360, 1-(2-METHOXY-4-NEOPENTYLPHENYL)-N-(PYRIMIDIN-4-YL)ISOQUINOLINE-6-SULFONAMIDE] | < 4.52
6.27 | COc1nc(-c2cccc(F)c2)ccc1-c1nccc2cc(S(=O)(=O)Nc3ccncn3)ccc12 [Example 363, 1-(6-(3-FLUOROPHENYL)-2-METHOXYPYRIDIN-3-YL)-N-(PYRIMIDIN-4-YL)ISOQUINOLINE-6-SULFONAMIDE] | < 4.52
7.44 | COc1cc(-c2cc(F)cc(F)c2)c(F)cc1-c1nccc2cc(S(=O)(=O)Nc3nncs3)ccc12 [Example 364, N-(1,3,4-THIADIAZOL-2-YL)-1-(2,3′,5′-TRIFLUORO-5-METHOXY-[1,1′-BIPHENYL]-4-YL)ISOQUINOLINE-6-SULFONAMIDE] | < 4.52
7.39 | COc1cc(-c2ccc(F)c(F)c2)c(F)cc1-c1nccc2cc(S(=O)(=O)Nc3nncs3)ccc12 [Example 365, N-(1,3,4-THIADIAZOL-2-YL)-1-(2,3′,4′-TRIFLUORO-5-METHOXY-[1,1′-BIPHENYL]-4-YL)ISOQUINOLINE-6-SULFONAMIDE] | < 4.52
7.32 | COc1cc(-c2cccc(F)c2)c(F)cc1-c1nccc2cc(S(=O)(=O)Nc3nncs3)ccc12 [Example 366, 1-(2,3′-DIFLUORO-5-METHOXY-[1,1′-BIPHENYL]-4-YL)-N-(1,3,4-THIADIAZOL-2-YL)ISOQUINOLINE-6-SULFONAMIDE] | < 4.52
6.91 | COc1cc(Cl)ccc1-c1nccc2cc(S(=O)(=O)Nc3ncns3)ccc12 [Example 368, 1-(4-CHLORO-2-METHOXYPHENYL)-N-(1,2,4-THIADIAZOL-5-YL)ISOQUINOLINE-6-SULFONAMIDE] | < 4.52

Compound | pIC50 (Nav 1.7) | pIC50 (Nav 1.5)
COc1cc(OCC(C)C)ccc1-c1nccc2cc(S(=O)(=O)Nc3ccncn3)ccc12 [Example 361, 1-(4-ISOBUTOXY-2-METHOXYPHENYL)-N-(PYRIMIDIN-4-YL)ISOQUINOLINE-6-SULFONAMIDE] | 6.33 | < 4.52
